According to patent US10336792B2, “Antimicrobial peptide dendrimers” (priority 2014, dated 2019):
Converted amounts (≈) assume the structure as drawn. Positions of bridges follow the written chain, without caps; N, C: chain ends. Non-standard residues stand in square brackets, D forms with d. Residues, ends and D or L forms follow the SMILES beside them. Groups on a side chain read outwards from the residue. Chains are numbered I, II in the order given. Dap = NC[C@H](N)C(=O)O

These compounds were tested on Pseudomonas aeruginosa (strain PA01) (assay: microbe, parasite or virus in culture). Conditions: strain.
Type: cell-based
Procedure: Antimicrobial activity was assayed against Bacillus subtilis (strain BR151), Escherichia coli (strain DH5α) and Pseudomonas aeruginosa (strain PA01). Microdilution broth method was used to determine the minimal inhibitory concentration (MIC). A colony of bacteria was grown in LB-medium overnight at 37° C. The concentration was quantified by measuring absorbance at 600 nm and diluted to OD600=0.1 (1×10^8 CFU/mL). The samples were prepared as stock solutions of 1 mg mL^−1 in H2O and diluted serially by ⅔ in nutrient LB in a 96-well microtiterplate (Cornstar, polypropylene, untreated). The sample solutions (50 μL) were mixed with the diluted bacterial suspension with an OD600 nm of 0.001 (50 μL). […] The plates were incubated at 37° C. until satisfactory growth (18-24 h). For each test, two columns of the plate were kept for sterility control (SC, broth only) and growth control (GC, broth with bacterial inoculums, no antibiotics). 10 μL of a solution of MTT (0.1% in H2O) was added to each well. The minimal inhibitory concentration (MIC) was defined as the lowest concentration of the antimicrobial substance (peptide dendrimer) that inhibited visible growth of the tested bacteria (yellow) with the unaided eye. For microbiological study the linear peptide LysTyrLysLysAlaLeuLysLysLeuAlaLysLeuLeu (SEQ ID No. 1) was used as reference.
All peptides were tested for their activity against P. aeruginosa PAO1 in a broth dilution assay (Wiegand, I. et al., 2008, Nat. Protoc., 3, 163-75; Clinical and Laboratory Standards Institute document M7-A7 7th Edition) to determine the MIC (minimal inhibitory concentration) values. The stock solutions of the peptide dendrimers were diluted serially by ⅔ in nutrient LB in 96-well microtiter plates. Bacteria were grown in nutrient LB overnight at 37° C. After dilution the bacteria were added to the peptides and incubated overnight (18-24 h) at 37° C. […] The position of the amino acids between the branching units seems to be optimal if the hydrophobic amino acid is the first counting from C-terminus and the charged one is on the second position. Introducing Ala as additional hydrophobic amino acid reduces activity (MSt-120). […] Also assembling charged or hydrophobic sections between the branching units leads to loss of activity whereas altering L-amino acids to D-amino acids maintains activity leading to the hypothesis that the mechanism of action should not be receptor mediated.

Structure (SMILES)	MIC P. aeruginosa PAO1
CC(C)C[C@H](NC(=O)[C@H](CCCCN)NC(=O)[C@H](CCCCNC(=O)[C@H](CC(C)C)NC(=O)[C@@H](N)CCCCN)NC(=O)[C@H](CC(C)C)NC(=O)[C@@H](N)CCCCN)C(=O)N[C@@H](CSSC[C@H](NC(=O)[C@H](CC(C)C)NC(=O)[C@H](CCCCN)NC(=O)[C@H](CCCCNC(=O)[C@H](CC(C)C)NC(=O)[C@@H](N)CCCCN)NC(=O)[C@H](CC(C)C)NC(=O)[C@@H](N)CCCCN)C(N)=O)C(N)=O [CCS-5 dimer, ((KL)2KKLC)2] (I: H-KLK([Leu-Lys])KLC-NH2 / II: H-KLK([Leu-Lys])KLC-NH2; disulfide I:6-II:6)	15 µg/mL (≈ 7.72 µM)
CC(C)C[C@H](NC(=O)[C@H](CCCNC(=N)N)NC(=O)[C@H](CCCCNC(=O)[C@H](CC(C)C)NC(=O)[C@@H](N)CCCNC(=N)N)NC(=O)[C@H](CC(C)C)NC(=O)[C@@H](N)CCCNC(=N)N)C(=O)N[C@@H](CSSC[C@H](NC(=O)[C@H](CC(C)C)NC(=O)[C@H](CCCNC(=N)N)NC(=O)[C@H](CCCCNC(=O)[C@H](CC(C)C)NC(=O)[C@@H](N)CCCNC(=N)N)NC(=O)[C@H](CC(C)C)NC(=O)[C@@H](N)CCCNC(=N)N)C(N)=O)C(N)=O [CCS-19 dimer, ((RL)2KRLC)2] (I: H-RLK([Leu-Arg])RLC-NH2 / II: H-RLK([Leu-Arg])RLC-NH2; disulfide I:6-II:6; N-terminus assumed)	5 µg/mL (≈ 2.37 µM)
CC(C)C[C@H](NC(=O)[C@H](CCCCN)NC(=O)[C@H](CNC(=O)[C@H](CC(C)C)NC(=O)[C@H](CCCCN)NC(=O)[C@H](CNC(=O)[C@H](CC(C)C)NC(=O)[C@@H](N)CCCCN)NC(=O)[C@H](CC(C)C)NC(=O)[C@@H](N)CCCCN)NC(=O)[C@H](CC(C)C)NC(=O)[C@H](CCCCN)NC(=O)[C@H](CNC(=O)[C@H](CC(C)C)NC(=O)[C@@H](N)CCCCN)NC(=O)[C@H](CC(C)C)NC(=O)[C@@H](N)CCCCN)C(N)=O [MSt-138, (KL)4(BKL)2(BKL)] (I: H-KL[Dap]([Leu-Lys])KL[Dap]KL-NH2 / II: H-KL[Dap]([Leu-Lys])KL; amide I:6-II:C)	2 µg/mL (≈ 1.02 µM)

Second part, the compound after the results:

MIC P. aeruginosa PAO1	Structure (SMILES)
12 µg/mL (≈ 1.8 µM)	CC(C)C[C@H](NC(=O)[C@H](CCCNC(=N)N)NC(=O)[C@H](CCCCNC(=O)[C@H](CC(C)C)NC(=O)[C@H](CCCNC(=N)N)NC(=O)[C@H](CCCCNC(=O)[C@H](CC(C)C)NC(=O)[C@H](CCCNC(=N)N)NC(=O)CSC[C@H](NC(=O)[C@H](CC(C)C)NC(=O)[C@H](CCCNC(=N)N)NC(=O)[C@H](CCCCNC(=O)[C@H](CC(C)C)NC(=O)[C@@H](N)CCCNC(=N)N)NC(=O)[C@H](CC(C)C)NC(=O)[C@@H](N)CCCNC(=N)N)C(N)=O)NC(=O)[C@H](CC(C)C)NC(=O)[C@H](CCCNC(=N)N)NC(=O)CSC[C@H](NC(=O)[C@H](CC(C)C)NC(=O)[C@H](CCCNC(=N)N)NC(=O)[C@H](CCCCNC(=O)[C@H](CC(C)C)NC(=O)[C@@H](N)CCCNC(=N)N)NC(=O)[C@H](CC(C)C)NC(=O)[C@@H](N)CCCNC(=N)N)C(N)=O)NC(=O)[C@H](CC(C)C)NC(=O)[C@H](CCCNC(=N)N)NC(=O)[C@H](CCCCNC(=O)[C@H](CC(C)C)NC(=O)[C@H](CCCNC(=N)N)NC(=O)CSC[C@H](NC(=O)[C@H](CC(C)C)NC(=O)[C@H](CCCNC(=N)N)NC(=O)[C@H](CCCCNC(=O)[C@H](CC(C)C)NC(=O)[C@@H](N)CCCNC(=N)N)NC(=O)[C@H](CC(C)C)NC(=O)[C@@H](N)CCCNC(=N)N)C(N)=O)NC(=O)[C@H](CC(C)C)NC(=O)[C@H](CCCNC(=N)N)NC(=O)CSC[C@H](NC(=O)[C@H](CC(C)C)NC(=O)[C@H](CCCNC(=N)N)NC(=O)[C@H](CCCCNC(=O)[C@H](CC(C)C)NC(=O)[C@@H](N)CCCNC(=N)N)NC(=O)[C@H](CC(C)C)NC(=O)[C@@H](N)CCCNC(=N)N)C(N)=O)C(N)=O [CCS-27, (RL)8(KRLCxRL)4(KRL)2KRL]
2 µg/mL (≈ 0.694 µM)	CC(C)C[C@H](NC(=O)[C@H](CCCCN)NC(=O)[C@H](CC(C)C)NC(=O)[C@H](CCCCNC(=O)[C@H](CC(C)C)NC(=O)[C@H](CCCCN)NC(=O)[C@H](CC(C)C)NC(=O)[C@H](CCCCNC(=O)[C@H](CC(C)C)NC(=O)[C@H](CCCCN)NC(=O)[C@@H](N)CC(C)C)NC(=O)[C@H](CC(C)C)NC(=O)[C@H](CCCCN)NC(=O)[C@@H](N)CC(C)C)NC(=O)[C@H](CC(C)C)NC(=O)[C@H](CCCCN)NC(=O)[C@H](CC(C)C)NC(=O)[C@H](CCCCNC(=O)[C@H](CC(C)C)NC(=O)[C@H](CCCCN)NC(=O)[C@@H](N)CC(C)C)NC(=O)[C@H](CC(C)C)NC(=O)[C@H](CCCCN)NC(=O)[C@@H](N)CC(C)C)C(N)=O [MIS-04, (LKL)4(KLKL)2(KLKL)] (I: H-LKLK([Leu-Lys-Leu])LKLKLKL-NH2 / II: H-LKLK([Leu-Lys-Leu])LKL; amide I:8-II:C)
11 µg/mL (≈ 1.77 µM)	CC(C)C[C@H](NC(=O)[C@H](CC(C)C)NC(=O)[C@H](CCCCN)NC(=O)[C@H](CCCCNC(=O)[C@H](CC(C)C)NC(=O)[C@H](CC(C)C)NC(=O)[C@H](CCCCN)NC(=O)[C@H](CCCCNC(=O)[C@H](CC(C)C)NC(=O)[C@H](CC(C)C)NC(=O)[C@H](CCCCN)NC(=O)[C@H](CCCCNC(=O)[C@H](CC(C)C)NC(=O)[C@H](CC(C)C)NC(=O)[C@@H](N)CCCCN)NC(=O)[C@H](CC(C)C)NC(=O)[C@H](CC(C)C)NC(=O)[C@@H](N)CCCCN)NC(=O)[C@H](CC(C)C)NC(=O)[C@H](CC(C)C)NC(=O)[C@H](CCCCN)NC(=O)[C@H](CCCCNC(=O)[C@H](CC(C)C)NC(=O)[C@H](CC(C)C)NC(=O)[C@@H](N)CCCCN)NC(=O)[C@H](CC(C)C)NC(=O)[C@H](CC(C)C)NC(=O)[C@@H](N)CCCCN)NC(=O)[C@H](CC(C)C)NC(=O)[C@H](CC(C)C)NC(=O)[C@H](CCCCN)NC(=O)[C@H](CCCCNC(=O)[C@H](CC(C)C)NC(=O)[C@H](CC(C)C)NC(=O)[C@H](CCCCN)NC(=O)[C@H](CCCCNC(=O)[C@H](CC(C)C)NC(=O)[C@H](CC(C)C)NC(=O)[C@@H](N)CCCCN)NC(=O)[C@H](CC(C)C)NC(=O)[C@H](CC(C)C)NC(=O)[C@@H](N)CCCCN)NC(=O)[C@H](CC(C)C)NC(=O)[C@H](CC(C)C)NC(=O)[C@H](CCCCN)NC(=O)[C@H](CCCCNC(=O)[C@H](CC(C)C)NC(=O)[C@H](CC(C)C)NC(=O)[C@@H](N)CCCCN)NC(=O)[C@H](CC(C)C)NC(=O)[C@H](CC(C)C)NC(=O)[C@@H](N)CCCCN)C(N)=O [MIS-06, (KLL)8(KKLL)4(KKLL)2(KKLL)] (I: H-KLLK([Leu-Leu-Lys])KLLKKLLKKLL-NH2 / II: H-KLLK([Leu-Leu-Lys])KLLKKLL / III: H-KLLK([Leu-Leu-Lys])KLL / IV: H-KLLK([Leu-Leu-Lys])KLL; amide I:8-IV:C, I:12-II:C, II:8-III:C)
4 µg/mL (≈ 0.642 µM)	CC(C)C[C@H](NC(=O)[C@H](CCCCN)NC(=O)[C@H](CC(C)C)NC(=O)[C@H](CCCCNC(=O)[C@H](CC(C)C)NC(=O)[C@H](CCCCN)NC(=O)[C@H](CC(C)C)NC(=O)[C@H](CCCCNC(=O)[C@H](CC(C)C)NC(=O)[C@H](CCCCN)NC(=O)[C@H](CC(C)C)NC(=O)[C@H](CCCCNC(=O)[C@H](CC(C)C)NC(=O)[C@H](CCCCN)NC(=O)[C@@H](N)CC(C)C)NC(=O)[C@H](CC(C)C)NC(=O)[C@H](CCCCN)NC(=O)[C@@H](N)CC(C)C)NC(=O)[C@H](CC(C)C)NC(=O)[C@H](CCCCN)NC(=O)[C@H](CC(C)C)NC(=O)[C@H](CCCCNC(=O)[C@H](CC(C)C)NC(=O)[C@H](CCCCN)NC(=O)[C@@H](N)CC(C)C)NC(=O)[C@H](CC(C)C)NC(=O)[C@H](CCCCN)NC(=O)[C@@H](N)CC(C)C)NC(=O)[C@H](CC(C)C)NC(=O)[C@H](CCCCN)NC(=O)[C@H](CC(C)C)NC(=O)[C@H](CCCCNC(=O)[C@H](CC(C)C)NC(=O)[C@H](CCCCN)NC(=O)[C@H](CC(C)C)NC(=O)[C@H](CCCCNC(=O)[C@H](CC(C)C)NC(=O)[C@H](CCCCN)NC(=O)[C@@H](N)CC(C)C)NC(=O)[C@H](CC(C)C)NC(=O)[C@H](CCCCN)NC(=O)[C@@H](N)CC(C)C)NC(=O)[C@H](CC(C)C)NC(=O)[C@H](CCCCN)NC(=O)[C@H](CC(C)C)NC(=O)[C@H](CCCCNC(=O)[C@H](CC(C)C)NC(=O)[C@H](CCCCN)NC(=O)[C@@H](N)CC(C)C)NC(=O)[C@H](CC(C)C)NC(=O)[C@H](CCCCN)NC(=O)[C@@H](N)CC(C)C)C(N)=O [MIS-08, (LKL)8(KLKL)4(KLKL)2(KLKL)] (I: H-LKLK([Leu-Lys-Leu])LKLKLKLKLKL-NH2 / II: H-LKLK([Leu-Lys-Leu])LKLKLKL / III: H-LKLK([Leu-Lys-Leu])LKL / IV: H-LKLK([Leu-Lys-Leu])LKL; amide I:8-IV:C, I:12-II:C, II:8-III:C)
